Measurements: patent publication EP0114128A1, “3-Amino-2-oxo-azetidine derivatives containing in position 1 a nitrogen heterocyclic radical, process for their preparation, their use as therapeutical agents and intermediates for their preparation” (priority 1983, dated 1984)
≈ marks a conversion by molar mass, not a printed value. Like-named read-outs stand apart in the source and are kept apart here.

Legend:
Assay in all cases: In vitro activity, dilution method in liquid medium (MIC)
Format in all cases: cell-based
[1] = test system: Enterobacter cloacae 1321 E; details: read-out: concentrations minimales inhibitrices (C. M. I.)
Experimental: (§1) Etude pharmacologiaue des produits de l'invention. Activité in vitro, méthode des dilutions en milieu liquide.
(§2) On prépare une série de tubes dans lesquels on répartit une même quantité de milieu nutritif stérile. On distribue dans chaque tube des quantités croissantes du produit à étudier, puis chaque tube est ensemencé avec une souche bactérienne. Après incubation de vingt-quatre ou quarante-huit heures à l'étuve à 37°C, l'inhibition de la croissance est appréciée par transillumination ce qui permet de déterminer les concentrations minimales inhibitrices (C. M. I.) exprimées en µg/cm3.

Escherichia Coli 078 = details: read-out: concentrations minimales inhibitrices (C. M. I.)
Experimental: as §1, §2

Escherichia Coli 1507 E = details: COLI1507E, read-out: concentrations minimales inhibitrices (C. M. I.)
Experimental: as §1, §2

Escherichia Coli 1894 = details: read-out: concentrations minimales inhibitrices (C. M. I.)
Experimental: as §1, §2

Escherichia Coli DC0 = details: read-out: concentrations minimales inhibitrices (C. M. I.)
Experimental: as §1, §2

Escherichia Coli DC2 = details: read-out: concentrations minimales inhibitrices (C. M. I.)
Experimental: as §1, §2

Escherichia Coli TEM = details: read-out: concentrations minimales inhibitrices (C. M. I.)
Experimental: as §1, §2

[2] = test system: Klebsiella Aeruginosa 1522 E; details: read-out: concentrations minimales inhibitrices (C. M. I.)
Experimental: as §1, §2

[3] = test system: Klebsiella pneumonae 52145; details: read-out: concentrations minimales inhibitrices (C. M. I.)
Experimental: as §1, §2

Proteus mirabilis A 235 = details: read-out: concentrations minimales inhibitrices (C. M. I.)
Experimental: as §1, §2

Proteus vulgaris A 232 = details: read-out: concentrations minimales inhibitrices (C. M. I.)
Experimental: as §1, §2

Providencia DU 48 = details: read-out: concentrations minimales inhibitrices (C. M. I.)
Experimental: as §1, §2

[4] = test system: Pseudomonas aeruginosa 1771 m; details: read-out: concentrations minimales inhibitrices (C. M. I.)
Experimental: as §1, §2

[5] = test system: Salmonella typhimurium MZ 11; details: Salmonella enterica, read-out: concentrations minimales inhibitrices (C. M. I.)
Experimental: as §1, §2

Serratia marcesceus 2532 = details: read-out: concentrations minimales inhibitrices (C. M. I.)
Experimental: as §1, §2

[6] = COLI078, 24 H incubation at 37°C
[7] = COLI078, 48 H incubation at 37°C
[8] = COLI1894, 24 H incubation at 37°C
[9] = COLI1894, 48 H incubation at 37°C
[10] = COLIDC0, 24 H incubation at 37°C
[11] = COLIDC0, 48 H incubation at 37°C
[12] = COLIDC2, 24 H incubation at 37°C
[13] = COLIDC2, 48 H incubation at 37°C

| SMILES | MIC ([1]; 24 H incubation at 37°C) [µg/mL] | MIC ([1]; 48 H incubation at 37°C) [µg/mL] | MIC (Escherichia Coli 078; [6]) [µg/mL] | MIC (Escherichia Coli 078; [7]) [µg/mL] | MIC (Escherichia Coli 1507 E; 24 H incubation at 37°C) [µg/mL] | MIC (Escherichia Coli 1507 E; 48 H incubation at 37°C) [µg/mL] | MIC (Escherichia Coli 1894; [8]) [µg/mL] | MIC (Escherichia Coli 1894; [9]) [µg/mL] | MIC (Escherichia Coli DC0; [10]) [µg/mL] | MIC (Escherichia Coli DC0; [11]) [µg/mL] | MIC (Escherichia Coli DC2; [12]) [µg/mL] | MIC (Escherichia Coli DC2; [13]) [µg/mL] | MIC (Escherichia Coli TEM; 24 h) [µg/mL] | MIC (Escherichia Coli TEM; 48 h) [µg/mL] | MIC ([2]; 24 H incubation at 37°C) [µg/mL] | MIC ([2]; 48 H incubation at 37°C) [µg/mL] | MIC ([3]; 24 H incubation at 37°C) [µg/mL] | MIC ([3]; 48 H incubation at 37°C) [µg/mL] | MIC (Proteus mirabilis A 235; A235, 24 H incubation at 37°C) [µg/mL] | MIC (Proteus mirabilis A 235; A235, 48 H incubation at 37°C) [µg/mL] | other results |
| --- | --- | --- | --- | --- | --- | --- | --- | --- | --- | --- | --- | --- | --- | --- | --- | --- | --- | --- | --- | --- | --- |
| C[C@@H]1[C@H](NC(=O)/C(=N\OC(C)(C)C(=O)O)c2csc(N)n2)C(=O)N1c1nn[nH]n1 (racemic) [Prod. ex.7, (3SR, 4RS) 3-//2-(-2-aminothiazol-4-yl) 2-/(1-carboxy 1-méthyléthoxy) imino/ acétyl/ aminol/4-méthyl 1-(tétrazol-5-yl) 2-azétidinone isomère syn] | 2.5 (≈ 5.9 µM) | 2.5 (≈ 5.9 µM) | 0.3 (≈ 0.709 µM) | 0.6 (≈ 1.42 µM) | 1.2 (≈ 2.83 µM) | 1.2 (≈ 2.83 µM) | 0.6 (≈ 1.42 µM) | 0.6 (≈ 1.42 µM) | 0.6 (≈ 1.42 µM) | 1.2 (≈ 2.83 µM) | 0.6 (≈ 1.42 µM) | 0.6 (≈ 1.42 µM) | 1.2 (≈ 2.83 µM) | 1.2 (≈ 2.83 µM) | 1.2 (≈ 2.83 µM) | 1.2 (≈ 2.83 µM) | 2.5 (≈ 5.9 µM) | 2.5 (≈ 5.9 µM) | 0.15 (≈ 0.354 µM) | 0.15 (≈ 0.354 µM) | MIC (Proteus vulgaris A 232; A232, 24 H incubation at 37°C): 0.08 µg/mL (≈ 0.189 µM); MIC (Proteus vulgaris A 232; A232, 48 H incubation at 37°C): 0.08 µg/mL (≈ 0.189 µM); MIC (Providencia DU 48; DU48, 24 H incubation at 37°C): 0.6 µg/mL (≈ 1.42 µM); MIC (Providencia DU 48; DU48, 48 H incubation at 37°C): 0.6 µg/mL (≈ 1.42 µM); MIC ([4]; 24 H incubation at 37°C): 0.6 µg/mL (≈ 1.42 µM); MIC ([4]; 48 H incubation at 37°C): 0.6 µg/mL (≈ 1.42 µM); MIC ([5]; 24 H incubation at 37°C): 0.6 µg/mL (≈ 1.42 µM); MIC ([5]; 48 H incubation at 37°C): 0.6 µg/mL (≈ 1.42 µM); MIC (Serratia marcesceus 2532; 24 H incubation at 37°C): 1.2 µg/mL (≈ 2.83 µM); MIC (Serratia marcesceus 2532; 48 H incubation at 37°C): 1.2 µg/mL (≈ 2.83 µM) |
| CO/N=C(\C(=O)N[C@H]1CN(c2nn[nH]n2)C1=O)c1csc(N)n1 [Prod. ex.3, (3S) 3-//2-(2-aminothiazol-4-yl) 2-méthoxyimino acétyl /amino/ 1-(lH-tétrazol-5-yl) 2-azétidinone] | 0.3 (≈ 0.889 µM) | 0.3 (≈ 0.889 µM) | 0.3 (≈ 0.889 µM) | 0.3 (≈ 0.889 µM) | 0.6 (≈ 1.78 µM) | 0.6 (≈ 1.78 µM) | 0.15 (≈ 0.445 µM) | 0.15 (≈ 0.445 µM) | 0.6 (≈ 1.78 µM) | 1.2 (≈ 3.56 µM) | 0.6 (≈ 1.78 µM) | 0.6 (≈ 1.78 µM) | 10 (≈ 29.6 µM) | 10 (≈ 29.6 µM) | 0.3 (≈ 0.889 µM) | 0.3 (≈ 0.889 µM) | 1.2 (≈ 3.56 µM) | 1.2 (≈ 3.56 µM) | 0.6 (≈ 1.78 µM) | 0.6 (≈ 1.78 µM) | MIC (Proteus vulgaris A 232; A232, 24 H incubation at 37°C): 0.3 µg/mL (≈ 0.889 µM); MIC (Proteus vulgaris A 232; A232, 48 H incubation at 37°C): 0.3 µg/mL (≈ 0.889 µM); MIC (Providencia DU 48; DU48, 24 H incubation at 37°C): 0.3 µg/mL (≈ 0.889 µM); MIC (Providencia DU 48; DU48, 48 H incubation at 37°C): 0.6 µg/mL (≈ 1.78 µM); MIC ([4]; 24 H incubation at 37°C): 5 µg/mL (≈ 14.8 µM); MIC ([4]; 48 H incubation at 37°C): 10 µg/mL (≈ 29.6 µM); MIC ([5]; 24 H incubation at 37°C): 0.3 µg/mL (≈ 0.889 µM); MIC ([5]; 48 H incubation at 37°C): 0.3 µg/mL (≈ 0.889 µM); MIC (Serratia marcesceus 2532; 24 H incubation at 37°C): 2.5 µg/mL (≈ 7.41 µM); MIC (Serratia marcesceus 2532; 48 H incubation at 37°C): 5 µg/mL (≈ 14.8 µM) |
